According to patent publication US5043166A, “Liposome/anthraquinone drug composition and method” (priority 1989, dated 1991):
Where two headings read alike, the source gives them in different places.

Tests used:
[1] = blood biochemistry after repeated administration; format: in vivo, mice; conditions: mouse, in vivo, iv, female, read-out: % Surviving (Table IX)
Procedure: (§1) Sabra mice were divided into groups of 15 mice. Three different doses of either F-DXR or L-DXR were tested: 5, 7.5, and 10 mg/kg body weight. Each dose level was tested on 15 male and 15 female mice. Treatment was administered as a bolus injection through the tail vein on days 0, 14, 28, 42, 56, 70, 84, and 98 of the experiment. The pulsed injection scheme was used for the purpose of achieving high cumulative doses, prolonging the period of exposure of the animals to the drug, and mimicking the way DXR is usually administered in clinical practice. In view of the toxicity observed after single injection (Example XI), DXR was administered at a maximum 10 mg/kg dosage so that the occurrence of acute toxicity would be reduced or nil. In order to avoid the overlapping myelosuppression of successive treatment, 14 days were allowed between successive injections, based on previous observations that full regeneration of the activity of myeloid centers in the spleen after treatment with 10 mg/kg of DXR occurred between 7-12 days after drug administration.
(§2) During the course of the experiment, mice were inspected daily and survival curves were recorded. Whenever possible, dead mice were autopsied and a limited sample of organs sent for histopathological examination. Blood counts and body weights were checked weekly. The blood counts were done in a Coulter analyzer with a 20 μl sample obtained from the retro-orbital blood sinuses. One-third of the mice of each group were sacrificed on day 42, after 3 injections. A second third was sacrificed on day 84, after 6 injections. The remaining mice were sacrificed on day 180, 82 days after the 8the and last injection. Before sacrifice, the mice were bled under light ether anesthesia to obtain serum for the biochemical tests. The animals were then dissected and the removed organs, after weighing, were fixed in Bouin's solution and processed for light microscopy examination with hematoxylin-eosin-phosphomolybdic acid: light green stain.
(§3) d) Effects on Blood Biochemistry Values. Blood levels of glucose, cholesterol, triglycerides, urea, uric acid, creatine, and total protein were measured at 42, 84, and 180 day time points. Blood enzyme levels of alkaline phosphatase, aspartate aminotransferase, and alanine aminotransferase were also assayed at these time points.
(§4) The most important differences in blood chemistry between F-DXR and L-DXR administration occurred in blood glucose, cholesterol, and triglyceride levels. These differences are seen in Table III below, which gives data on female mice receiving 10 mg/kg of either F-DXR or L-DXR. Glucose, cholesterol, and triglyceride levels are expressed as percent control (untreated) animals, and "nm" means "not measured".

Sabra mice = assay: blood biochemistry after repeated administration; format: in vivo
Procedure: as §1, §2, §3, §4

[2] = cited from earlier work
[3] = organ distribution of DXR after administration free or in liposomes; format: in vivo
[4] = tested on: myeloid centers in the spleen; conditions: 10 mg/kg of DXR; cited from earlier work
human cancer patients = assay: clinical trials with L-DXR in cancer patients; conditions: in vivo
Procedure: Eight cancer patients have been treated with the L-DXR composition of Example III. The administration of the drug was done using a 120 ml "Voluset" at a concentration of approximately 0.5 mg/ml in isotonic saline and at a rate of 2-3 ml per min. For intraarterial injections, peristaltic pumps were used, with the rate of infusion being ~1.5 ml/min. […] This was done taking advantage of previously implanted pumps. In both patients, the perfusion of the liver with the pump was previously examined with a Tc-99 labeled macroaggregated albumin scan.

[5] = liposome form, animals; cited from earlier work
[6] = single injection survival with graded doses of F-DXR and L-DXR; parameters: species or system mice; conditions: mouse, in vivo, iv, 90 days
Procedure: L-DXR was prepared as in Example I, to final DXR concentrations of 1, 1.5, 2, and 2.5 mg/ml, with corresponding phospholipid concentrations of 16, 24, 32, and 40 μmole/ml, respectively, and cholesterol concentrations of 6.4, 9.6, 12.8, and 16 μmole/ml, respectively. Free DXR (F-DXR) was prepared in sterile, pyrogen-free physiologic saline solution to final concentrations of 1, 1.5, 2, and 2.5 mg/ml.
BALB/c male mice were treated intravenously with 4 different doses of F-DXR and L-DXR: 10, 15, 20, and 25 mg/kg, by administering about 1% total animal weight of the corresponding F-DXR or L-DXR formulation. […] No mortality was registered among animals treated with 15 and 10 mg/kg of L-DXR and 60% of the mice injected with 20 mg/kg survived throughout 90 days. F-DXR caused 100% of mortality in the groups injected with 25, 20, and 15 mg/kg and 20% mortality in the group receiving 10 mg/kg.

[7] = heart, read-out: DXR level in Heart
[8] = intestine, read-out: DXR level in Intestine
[9] = kidney, read-out: DXR level in Kidney
[10] = liver, read-out: DXR level in Liver
[11] = lungs, read-out: DXR level in Lungs
[12] = skeletal muscle, read-out: DXR level in Skeletal Muscle
[13] = spleen, read-out: DXR level in Spleen

COc1cccc2c1C(=O)c1c(O)c3c(c(O)c1C2=O)C[C@@](O)(C(=O)CO)C[C@@H]3O[C@H]1C[C@H](N)[C@H](O)[C@H](C)O1 [DXR, doxorubicin]
survival at 1008 h ([1]; day 42, 10 mg/kg): 93%
survival at 2016 h ([1]; day 84, 10 mg/kg): 27%
blood cholesterol (Sabra mice; 10 mg/kg): hypercholesterolemia
blood glucose (Sabra mice; 10 mg/kg): decreased blood glucose
blood triglyceride (Sabra mice; 10 mg/kg): hyperglyceridemia
creatine levels (Sabra mice; 7.5 and 5 mg/kg, 180 days): increased creatine levels
alanine aminotransferase (Sabra mice; 180 days): a drop in alanine aminotransferase
Cholesterol, percent control (untreated) (Sabra mice; female, day 42, 10 mg/kg): 300 percent control
Glucose, percent control (untreated) (Sabra mice; female, day 42, 10 mg/kg): 97 percent control
Cholesterol, percent control (untreated) (Sabra mice; female, day 84, 10 mg/kg): 383 percent control
Glucose, percent control (untreated) (Sabra mice; female, day 84, 10 mg/kg): 57 percent control
Triglyceride, percent control (untreated) (Sabra mice; female, day 84, 10 mg/kg): 416 percent control
liver enzymes (alkaline phosphatase and aminotransferases) (Sabra mice; mouse, in vivo): Increased liver enzymes
cardiac toxicity on repeated administration ([2]; repeated administration): cumulative and irreversible cardiac damage
acute toxicity ([2]; soluble form): malaise, nausea, vomiting myelosuppression, and severe alopecia
concentration at 1 h [3, 7]: 8400 ng/g
concentration at 5 h [3, 7]: 4200 ng/g
concentration at 24 h [3, 7]: 900 ng/g
concentration at 1 h [3, 8]: 5800 ng/g
concentration at 5 h [3, 8]: 3100 ng/g
concentration at 24 h [3, 8]: 1900 ng/g
concentration at 1 h [3, 9]: 31900 ng/g
concentration at 5 h [3, 9]: 19400 ng/g
concentration at 24 h [3, 9]: 6900 ng/g
concentration at 1 h [3, 10]: 30500 ng/g
concentration at 5 h [3, 10]: 16400 ng/g
concentration at 24 h [3, 10]: 3800 ng/g
concentration at 1 h [3, 11]: 13200 ng/g
concentration at 5 h [3, 11]: 8600 ng/g
concentration at 24 h [3, 11]: 3600 ng/g
concentration at 1 h [3, 12]: 2300 ng/g
concentration at 5 h [3, 12]: 2800 ng/g
concentration at 24 h [3, 12]: 590 ng/g
concentration at 1 h [3, 13]: 8100 ng/g
concentration at 5 h [3, 13]: 10700 ng/g
concentration at 24 h [3, 13]: 8800 ng/g
full regeneration of myeloid centers in the spleen [4]: 7 to 12 days
fever (human cancer patients): fever was a constant feature
toxicity as judged by reduced mortality [5]: significantly less toxic, as judged by reduced mortality
mortality at 2160 h ([6]; 10 mg/kg i.v.): 20%
mortality at 2160 h ([6]; 15 mg/kg i.v.): 100%
mortality at 2160 h ([6]; 20 mg/kg i.v.): 100%
mortality at 2160 h ([6]; 25 mg/kg i.v.): 100%
